Laboratory results as given in patent publication US10093629B2, “Heterocyclic compounds and their use as retinoid-related orphan receptor (ROR) gamma-T inhibitors” (Takeda Pharmaceutical Company Limited, priority 2014, dated 2018).

Key:
RORγt [1] = target: T1, RORγt (Homo sapiens, UniProt P51449); assay: RORγt binding test using fluorescent-labeled synthetic ligand (TR-FRET); settings: test compound 1 μM; read-out: binding inhibitory rate of fluorescent-labeled synthetic ligand to RORγt at test compound 1 μM
T1 sequence (P51449 1-497 isoform P51449-2): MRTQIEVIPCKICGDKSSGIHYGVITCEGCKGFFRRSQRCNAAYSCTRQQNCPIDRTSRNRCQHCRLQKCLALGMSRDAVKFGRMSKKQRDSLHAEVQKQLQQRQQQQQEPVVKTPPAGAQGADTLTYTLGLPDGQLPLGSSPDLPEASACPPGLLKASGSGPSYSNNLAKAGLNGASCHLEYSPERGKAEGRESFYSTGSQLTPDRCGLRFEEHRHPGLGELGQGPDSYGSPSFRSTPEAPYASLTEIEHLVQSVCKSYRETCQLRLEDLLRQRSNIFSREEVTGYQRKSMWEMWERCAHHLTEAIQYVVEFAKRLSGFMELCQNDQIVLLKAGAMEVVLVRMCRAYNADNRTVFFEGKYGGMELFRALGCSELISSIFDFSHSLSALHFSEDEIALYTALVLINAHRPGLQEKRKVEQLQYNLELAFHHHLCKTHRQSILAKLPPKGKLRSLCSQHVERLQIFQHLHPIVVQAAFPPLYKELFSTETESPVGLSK

[2] = test system: IL-23-induced mouse psoriasis model; assay: IL-23-induced mouse psoriasis model; format: in vivo; settings: Balb/c mice, versus the negative control group; for percent inhibition of IL-17A expression: ear tissue
Method: Effect in an IL-23-Induced Mouse Psoriasis Model
Mouse IL-23 (500 ng/15 μL, R&D) or PBS (15 μL, negative control group) was administered intradermally in the ear of Balb/c mice (Charles River Japan, male, 7 weeks old) 5 times every other days. Seven hr after IL-23 administration at 8 days after the initial administration (final administration), the mice were anesthetized with isoflurane, and ear thickness was measured with calipers. After the ear thickness was measured, the ear was resected, tissue 8 mm in diameter was punched from an area centering on the IL-23 injection site, and the tissue was weighed. The punched ear tissue was cut in half, and one half was immersion-fixed in 10% neutral buffer formalin solution for use in histopathological evaluation. The other half was immersed in RNAlater (QIAGEN) for at least 18 hr for use in an evaluation of the IL-17A mRNA expression level. The test compound was suspended in 0.5% methylcellulose and administered orally twice daily on consecutive days from 30 min before the initial IL-23 administration to 30 min before the final IL-23 administration.
The change in ear thickness in this model was evaluated by calculating the difference in measured thickness between before IL-23 administration and 7 hr after the final IL-23 administration. In addition, the formalin-fixed tissue was embedded and sectioned, then stained with hematoxylin-eosin. The degree of acanthosis was then evaluated qualitatively by microscopy (classified with a score of 0 to 4). RNA extraction from the ear tissue and quantitative PCR were performed as follows. As described above, ear tissue treated with RNAlater (QIAGEN) was homogenized in 350 μL of RLT buffer (RNeasy mini kit, QIAGEN) and treated (55° C., 10 min) with Proteinase K (QIAGEN). Total RNA was then extracted according to the RNeasy mini kit protocol. The RNA thus obtained was reverse transcribed into cDNA using the High-Capacity RNA-to-cDNA kit (Applied Biosystems), and the expression of each gene was measured by real-time PCR (Viia7™, Applied Biosystems). The PCR buffer used was TaqMan Fast Advanced Master Mix (Applied Biosystems), and TaqMan Gene Expression Assays (Applied Biosystems) Mm00439618_m1 (IL-17A) and 4352341E (β-actin) were used to detect the genes. The IL-17A gene expression level was normalized to the β-actin gene expression level, and the percent inhibition of IL-17A gene expression with the test compound was then calculated.
The results (percent inhibition of ear thickness, acanthosis score and IL-17A gene expression with oral administration of the test compound) measured by the above-mentioned method are shown in Table 10.

[3] = test system: IL-17 production in human blood; assay: Effect on IL-17 production in human blood; format: cell-based; settings: 72 h; 10 μM test compound; human peripheral blood, IL-23 and Dynabeads stimulation, 3 days; read-out: percent inhibition at 10 μM (IL-17 production)
Method: Effect on IL-17 Production in Human Blood
The inhibitory effect of the test compound on IL-17 production in human blood was evaluated as follows. First, 150 μL of peripheral blood collected from healthy individuals using heparinized vacuum blood collection tubes was dispensed into each well of a 96-well plate (Corning), and 45 μL of RPMI 1640 medium (Gibco) containing 10% fetal bovine serum (FBS, Hyclone) and 30 μL of the test compound diluted with the medium were added to each well. The plate was then cultured for 30 min at 37° C. The cells were subsequently stimulated by adding 30 μL of 100 ng/mL human IL-23 (R&D) and 45 μL of Dynabeads Human (Invitrogen) to each well and culturing the plate for 3 days at 37° C. In wells without stimulation, 75 μL of RPMI 1640 medium containing 10% FBS was added instead of the IL-23 and Dynabeads solution. After culturing for 3 days, the culture supernatant was collected, and the amount of IL-17 in the supernatant was measured using an IL-17 ELISA kit (R&D).
The results (percent inhibition of IL-17 production with 10 μM of the test compound) measured by the above-mentioned method are shown in Table 8.

RORγt [4] = target: T1, RORγt; assay: Jurkat reporter test (human IL-17 ROR response element luciferase, RORγt vector); format: cell-based; settings: Jurkat, test compound 3 μM; Jurkat cells; read-out: luminescence level inhibitory rate at test compound 3 μM
How it was run: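 Jurkat cells were electroporated (1350 V, 10 ms, 3 pulses) with reporter constructs, then cultured overnight with compound in RPMI containing 10% lipid-reduced FCS, 10 mM HEPES pH 7.5 and 5 μM lovastatin. Luciferase was quantified by Bright-Glo luminescence after 10 min at room temperature.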

RORγt [5] = target: T1, RORγt; assay: Cofactor recruitment test (Alpha Screen, biotinylated SRC-1 peptide); format: biochemical; settings: test compound 1 μM; read-out: signal value inhibitory rate at test compound 1 μM
Method: Cofactor Recruitment Test
Cofactor recruitment test was performed by Alpha Screen (Histidine Detection Kit, PerkinElmer) method. First, a test compound was diluted with an assay buffer (50 mM Tris-HCl (pH 7.5), 50 mM KCl, 1 mM DTT, 0.1% BSA) and added to a 384 well plate by 5 μL. […] The mixture was stood in a dark place for 1 hr, and the signal value was measured by Envision (PerkinElmer).

IL-17A gene expression = assay: Effect on IL-23-induced cytokine expression in mice; format: in vivo, mouse; settings: 10 mg/kg oral, 30 min before and 8 hr after IL-23; ear of Balb/c mice; versus the negative control group
Method: Effect on IL-23-Induced Cytokine Expression in Mice
A mouse IL-23 solution (500 ng/10 μL, prepared by Takeda Pharmaceutical Company Limited) or PBS (10 μL, negative control group) was administered intradermally in the ear of Balb/c mice (Charles River Japan, male, 7 weeks old). Twenty-four hr after administration, the ear was resected under isoflurane anesthesia. The test compound was suspended in 0.5% methylcellulose and administered orally 30 min before and 8 hr after IL-23 administration.
RNA extraction from the ear tissue and quantitative PCR were performed as follows. Specifically, ear tissue 5 mm in diameter was punched from an area of the resected ear centering on the IL-23 injection site, and the tissue was immersed in RNAlater (QIAGEN) for at least 18 hr. The RNAlater-treated ear tissue was homogenized in 350 μL of RLT buffer (RNeasy mini kit, QIAGEN) and treated (55° C., 10 min) with Proteinase K (QIAGEN). Total RNA was then extracted according to the RNeasy mini kit protocol. The RNA thus obtained was then reverse transcribed into cDNA using the High-Capacity RNA-to-cDNA kit (Applied Biosystems), and the amount of each gene expressions was measured by real-time PCR (Viia7™, Applied Biosystems). The PCR buffer used was TaqMan Fast Advanced Master Mix (Applied Biosystems), and TaqMan Gene Expression Assays (Applied Biosystems) Mm00439618_m1 (IL-17A) and 4352341E (β-actin) were used for each gene detection. The IL-17A gene expression level was normalized to the β-actin gene expression level, and the percent inhibition of IL-17A gene expression with the test compound was then calculated.
The results (percent inhibition of IL-17A gene expression with oral administration of the test compound) measured by the above-mentioned method are shown in Table 9.

Structure (SMILES) | inhibition at 1 µM (RORγt [1]) [%] | percent inhibition of acanthosis score ([2]; 10 mg/kg oral twice daily) [%] | percent inhibition of ear thickness ([2]; 10 mg/kg oral twice daily) [%] | percent inhibition of IL-17A expression ([2]; 10 mg/kg oral twice daily) [%] | inhibition at 10 µM [3] [%] | inhibition at 3 µM (RORγt [4]) [%] | inhibition at 1 µM (RORγt [5]) [%] | percent inhibition of acanthosis score ([2]; 1 mg/kg oral twice daily) [%] | percent inhibition of ear thickness ([2]; 1 mg/kg oral twice daily) [%] | percent inhibition of IL-17A expression ([2]; 1 mg/kg oral twice daily) [%] | percent inhibition of IL-17A gene expression (IL-17A gene expression) [%]
COCc1ccc2c(c1)CCN(C(=O)[C@H]1C[C@@H](CC(=O)O)C1)[C@H]2C(=O)Nc1cc(F)c2c(c1)CCC2(C)C [Example 19, (cis-3-(((1R)-1-((7-fluoro-1,1-dimethyl-2,3-dihydro-1H-inden-5-yl)carbamoyl)-6-(methoxymethyl)-3,4-dihydroisoquinolin-2(1H)-yl)carbonyl)cyclobutyl)acetic acid] | 101 | 29 | 40 | 94 | 94.1 | 99 | 82 | – | – | – | –
COc1ccc2c(n1)CCN(C(=O)[C@H]1C[C@@H]1CC(=O)O)[C@H]2C(=O)Nc1cc(F)c2c(c1)CCC2(C)C [Example 6, ((1R,2S)-2-(((5R)-5-((7-fluoro-1,1-dimethyl-2,3-dihydro-1H-inden-5-yl)carbamoyl)-2-methoxy-7,8-dihydro-1,6-naphthyridin-6(5H)-yl)carbonyl)cyclopropyl)acetic acid] | 102 | 39 | 64 | 111 | 86.6 | 97 | 54 | – | – | – | –
COc1ccc2c(n1)CCN(C(=O)[C@H]1C[C@@H](C(=O)O)C1)[C@H]2C(=O)Nc1cc(F)c2c(c1)CCC2(C)C [Example 10, cis-3-(((5R)-5-((7-fluoro-1,1-dimethyl-2,3-dihydro-1H-inden-5-yl)carbamoyl)-2-methoxy-7,8-dihydro-1,6-naphthyridin-6(5H)-yl)carbonyl)cyclobutanecarboxylic acid] | – | – | – | – | 89.7 | – | – | 47 | 52 | 91 | 87
